Data from the supplement of paper PMC10307832.

Legend:
Experiment in all cases: relative viability (nuclei count vs DMSO), 5 days (fraction); higher = more cells survive
NCI-H1975 = system: NCI-H1975
Procedure, shortened: (§1)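 Nuclei were stained with Hoechst during a one-step fixation (final 0.05% Triton X-100, 1% formaldehyde, 1 ug/ml Hoechst) carried out 5 days after dosing, then counted on 4× images. The cells, lung cancer lines in 1536-well plates, had been dosed by pin tool the day after seeding with one drug alone or a fixed anchor-drug dose plus five library-drug doses (not always all listed) in √10 steps. Relative viability is the nuclei count in treated wells divided by that in vehicle wells, and each value is the median of duplicate plates.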

NCI-H661 = system: NCI-H661
Procedure, shortened: as §1

NCI-H1437 = system: NCI-H1437
Procedure, shortened: as §1

NCI-H2405 = system: NCI-H2405
Procedure, shortened: as §1

HCC-827 = system: HCC-827
Procedure, shortened: as §1

HCC-78 = system: HCC-78
Procedure, shortened: as §1

NCI-H2085 = system: NCI-H2085
Procedure, shortened: as §1

SK-LU-1 = system: SK-LU-1
Procedure, shortened: as §1

COR-L23 = system: COR-L23
Procedure, shortened: as §1

NCI-H1792 = system: NCI-H1792
Procedure, shortened: as §1

UMC-11 = system: UMC-11
Procedure, shortened: as §1

NCI-H727 = system: NCI-H727
Procedure, shortened: as §1

HCC-15 = system: HCC-15
Procedure, shortened: as §1

COR-L 105 = system: COR-L 105
Procedure, shortened: as §1

LCLC-103H = system: LCLC-103H
Procedure, shortened: as §1

HCC-366 = system: HCC-366
Procedure, shortened: as §1

EPLC-272H = system: EPLC-272H
Procedure, shortened: as §1

NCI-H2023 = system: NCI-H2023
Procedure, shortened: as §1

HARA = system: HARA
Procedure, shortened: as §1

HCC-44 = system: HCC-44
Procedure, shortened: as §1

NCI-H1395 = system: NCI-H1395
Procedure, shortened: as §1

SK-MES-1 = system: SK-MES-1
Procedure, shortened: as §1

NCI-H1944 = system: NCI-H1944
Procedure, shortened: as §1

Compound: CCCCCCCCCCCC1=C(O)C(=O)C=C(O)C1=O [Embelin] + CC(C)C[C@H](NC(=O)[C@H](Cc1ccccc1)NC(=O)c1cnccn1)B(O)O [Bortezomib] (partner 0.002 µM)
- relative viability (NCI-H1975; first compound 0.08 µM): 0.45
- relative viability (NCI-H1975; first compound 0.8 µM): 0.432
- relative viability (NCI-H1975; first compound 2.53 µM): 0.372
- relative viability (NCI-H1975; first compound 8 µM): 0.367
- relative viability (NCI-H661; first compound 0.08 µM): 0.961
- relative viability (NCI-H661; first compound 0.8 µM): 0.867
- relative viability (NCI-H661; first compound 2.53 µM): 0.997
- relative viability (NCI-H661; first compound 8 µM): 0.78
- relative viability (NCI-H1437; first compound 0.08 µM): 0.602
- relative viability (NCI-H1437; first compound 0.8 µM): 0.528
- relative viability (NCI-H1437; first compound 2.53 µM): 0.618
- relative viability (NCI-H1437; first compound 8 µM): 0.347
- relative viability (NCI-H2405; first compound 0.08 µM): 1.03
- relative viability (NCI-H2405; first compound 0.8 µM): 1.03
- relative viability (NCI-H2405; first compound 2.53 µM): 1.02
- relative viability (NCI-H2405; first compound 8 µM): 1.01
- relative viability (HCC-827; first compound 0.08 µM): 1.12
- relative viability (HCC-827; first compound 0.8 µM): 1.07
- relative viability (HCC-827; first compound 2.53 µM): 1.06
- relative viability (HCC-827; first compound 8 µM): 1.17
- relative viability (HCC-78; first compound 0.08 µM): 0.605
- relative viability (HCC-78; first compound 0.8 µM): 0.532
- relative viability (HCC-78; first compound 2.53 µM): 0.555
- relative viability (HCC-78; first compound 8 µM): 0.438
- relative viability (NCI-H2085; first compound 0.08 µM): 0.989
- relative viability (NCI-H2085; first compound 0.8 µM): 1.07
- relative viability (NCI-H2085; first compound 2.53 µM): 1.07
- relative viability (NCI-H2085; first compound 8 µM): 1.03
- relative viability (SK-LU-1; first compound 0.08 µM): 1.23
- relative viability (SK-LU-1; first compound 0.8 µM): 1.95
- relative viability (SK-LU-1; first compound 2.53 µM): 0.982
- relative viability (SK-LU-1; first compound 8 µM): 0.929
- relative viability (COR-L23; first compound 0.08 µM): 1
- relative viability (COR-L23; first compound 0.8 µM): 1.1
- relative viability (COR-L23; first compound 2.53 µM): 1.21
- relative viability (COR-L23; first compound 8 µM): 1.21
- relative viability (NCI-H1792; first compound 0.08 µM): 0.93
- relative viability (NCI-H1792; first compound 0.8 µM): 1
- relative viability (NCI-H1792; first compound 2.53 µM): 1.09
- relative viability (NCI-H1792; first compound 8 µM): 1.03
- relative viability (UMC-11; first compound 0.08 µM): 0.771
- relative viability (UMC-11; first compound 0.8 µM): 0.966
- relative viability (UMC-11; first compound 2.53 µM): 0.896
- relative viability (UMC-11; first compound 8 µM): 0.547
- relative viability (NCI-H727; first compound 0.08 µM): 0.813
- relative viability (NCI-H727; first compound 0.8 µM): 0.997
- relative viability (NCI-H727; first compound 2.53 µM): 1.02
- relative viability (NCI-H727; first compound 8 µM): 0.798
- relative viability (HCC-15; first compound 0.08 µM): 1.07
- relative viability (HCC-15; first compound 0.8 µM): 1.02
- relative viability (HCC-15; first compound 2.53 µM): 1.18
- relative viability (HCC-15; first compound 8 µM): 1.11
- relative viability (COR-L 105; first compound 0.08 µM): 0.81
- relative viability (COR-L 105; first compound 0.8 µM): 0.901
- relative viability (COR-L 105; first compound 2.53 µM): 0.765
- relative viability (COR-L 105; first compound 8 µM): 0.961
- relative viability (LCLC-103H; first compound 0.08 µM): 1
- relative viability (LCLC-103H; first compound 0.8 µM): 1.14
- relative viability (LCLC-103H; first compound 2.53 µM): 1.07
- relative viability (LCLC-103H; first compound 8 µM): 0.885
- relative viability (HCC-366; first compound 0.08 µM): 1.05
- relative viability (HCC-366; first compound 0.8 µM): 1.05
- relative viability (HCC-366; first compound 2.53 µM): 1.43
- relative viability (HCC-366; first compound 8 µM): 1.1
- relative viability (EPLC-272H; first compound 0.08 µM): 0.804
- relative viability (EPLC-272H; first compound 0.8 µM): 1.07
- relative viability (EPLC-272H; first compound 2.53 µM): 1.17
- relative viability (EPLC-272H; first compound 8 µM): 0.86
- relative viability (NCI-H2023; first compound 0.08 µM): 0.915
- relative viability (NCI-H2023; first compound 0.8 µM): 1.12
- relative viability (NCI-H2023; first compound 2.53 µM): 1.07
- relative viability (NCI-H2023; first compound 8 µM): 0.578
- relative viability (HARA; first compound 0.08 µM): 1.05
- relative viability (HARA; first compound 0.8 µM): 1.25
- relative viability (HARA; first compound 2.53 µM): 1.13
- relative viability (HARA; first compound 8 µM): 1.26
- relative viability (HCC-44; first compound 0.08 µM): 0.838
- relative viability (HCC-44; first compound 0.8 µM): 0.865
- relative viability (HCC-44; first compound 2.53 µM): 0.864
- relative viability (HCC-44; first compound 8 µM): 0.897

Compound: CCCCCCCCCCCC1=C(O)C(=O)C=C(O)C1=O [Embelin] + CC1(C)CCC(c2ccc(Cl)cc2)=C(CN2CCN(c3ccc(C(=O)NS(=O)(=O)c4ccc(N[C@H](CCN5CCOCC5)CSc5ccccc5)c(S(=O)(=O)C(F)(F)F)c4)cc3)CC2)C1 [Navitoclax] (partner 0.5 µM)
- relative viability (NCI-H1975; first compound 0.08 µM): 1.13
- relative viability (NCI-H1975; first compound 0.8 µM): 1.29
- relative viability (NCI-H1975; first compound 2.53 µM): 1.13
- relative viability (NCI-H1975; first compound 8 µM): 1.11
- relative viability (NCI-H1437; first compound 0.08 µM): 1.07
- relative viability (NCI-H1437; first compound 0.8 µM): 1.14
- relative viability (NCI-H1437; first compound 2.53 µM): 1.11
- relative viability (NCI-H1437; first compound 8 µM): 0.707
- relative viability (NCI-H2405; first compound 0.08 µM): 0.986
- relative viability (NCI-H2405; first compound 0.8 µM): 1.41
- relative viability (NCI-H2405; first compound 2.53 µM): 0.875
- relative viability (NCI-H2405; first compound 8 µM): 0.906
- relative viability (HCC-827; first compound 0.08 µM): 1
- relative viability (HCC-827; first compound 0.8 µM): 1.09
- relative viability (HCC-827; first compound 2.53 µM): 1.03
- relative viability (HCC-827; first compound 8 µM): 1.04
- relative viability (HCC-78; first compound 0.08 µM): 0.797
- relative viability (HCC-78; first compound 0.8 µM): 0.931
- relative viability (HCC-78; first compound 2.53 µM): 0.863
- relative viability (HCC-78; first compound 8 µM): 0.762
- relative viability (NCI-H2085; first compound 0.08 µM): 1.09
- relative viability (NCI-H2085; first compound 0.8 µM): 1.31
- relative viability (NCI-H2085; first compound 2.53 µM): 1.2
- relative viability (NCI-H2085; first compound 8 µM): 1
- relative viability (SK-LU-1; first compound 0.08 µM): 0.808
- relative viability (SK-LU-1; first compound 0.8 µM): 1.16
- relative viability (SK-LU-1; first compound 2.53 µM): 0.786
- relative viability (SK-LU-1; first compound 8 µM): 0.832
- relative viability (COR-L23; first compound 0.08 µM): 0.991
- relative viability (COR-L23; first compound 0.8 µM): 1.32
- relative viability (COR-L23; first compound 2.53 µM): 1.19
- relative viability (COR-L23; first compound 8 µM): 1.22
- relative viability (NCI-H1792; first compound 0.08 µM): 0.593
- relative viability (NCI-H1792; first compound 0.8 µM): 0.649
- relative viability (NCI-H1792; first compound 2.53 µM): 0.892
- relative viability (NCI-H1792; first compound 8 µM): 0.669
- relative viability (UMC-11; first compound 0.08 µM): 0.328
- relative viability (UMC-11; first compound 0.8 µM): 0.32
- relative viability (UMC-11; first compound 2.53 µM): 0.319
- relative viability (UMC-11; first compound 8 µM): 0.289
- relative viability (NCI-H1395; first compound 0.08 µM): 1.18
- relative viability (NCI-H1395; first compound 0.8 µM): 1.42
- relative viability (NCI-H1395; first compound 2.53 µM): 1.18
- relative viability (NCI-H1395; first compound 8 µM): 0.982
- relative viability (NCI-H727; first compound 0.08 µM): 0.4
- relative viability (NCI-H727; first compound 0.8 µM): 0.537
- relative viability (NCI-H727; first compound 2.53 µM): 0.435
- relative viability (NCI-H727; first compound 8 µM): 0.392
- relative viability (HCC-15; first compound 0.08 µM): 0.659
- relative viability (HCC-15; first compound 0.8 µM): 0.773
- relative viability (HCC-15; first compound 2.53 µM): 0.718
- relative viability (HCC-15; first compound 8 µM): 0.693
- relative viability (SK-MES-1; first compound 0.08 µM): 1.23
- relative viability (SK-MES-1; first compound 0.8 µM): 1.32
- relative viability (SK-MES-1; first compound 2.53 µM): 1.25
- relative viability (SK-MES-1; first compound 8 µM): 1.43
- relative viability (COR-L 105; first compound 0.08 µM): 0.758
- relative viability (COR-L 105; first compound 0.8 µM): 1.04
- relative viability (COR-L 105; first compound 2.53 µM): 0.748
- relative viability (COR-L 105; first compound 8 µM): 0.795
- relative viability (NCI-H1944; first compound 0.08 µM): 1.01
- relative viability (NCI-H1944; first compound 0.8 µM): 1.11
- relative viability (NCI-H1944; first compound 2.53 µM): 1.06
- relative viability (NCI-H1944; first compound 8 µM): 0.941
- relative viability (HCC-366; first compound 0.08 µM): 0.953
- relative viability (HCC-366; first compound 0.8 µM): 1.16
- relative viability (HCC-366; first compound 2.53 µM): 1.13
- relative viability (HCC-366; first compound 8 µM): 1.11
- relative viability (EPLC-272H; first compound 0.08 µM): 1.07
- relative viability (EPLC-272H; first compound 0.8 µM): 1.34
- relative viability (EPLC-272H; first compound 2.53 µM): 1.21
- relative viability (EPLC-272H; first compound 8 µM): 1.11
- relative viability (NCI-H2023; first compound 0.08 µM): 1.05
- relative viability (NCI-H2023; first compound 0.8 µM): 1.05
- relative viability (NCI-H2023; first compound 2.53 µM): 1.02
- relative viability (NCI-H2023; first compound 8 µM): 0.689
- relative viability (HARA; first compound 0.08 µM): 1.12
- relative viability (HARA; first compound 0.8 µM): 1.2
- relative viability (HARA; first compound 2.53 µM): 1.12
- relative viability (HARA; first compound 8 µM): 1.13
- relative viability (HCC-44; first compound 0.08 µM): 0.903
- relative viability (HCC-44; first compound 0.8 µM): 0.911
- relative viability (HCC-44; first compound 2.53 µM): 1.07
- relative viability (HCC-44; first compound 8 µM): 0.923
